IC50 data for 6 compounds are collected here from ChEMBL document CHEMBL3886567, “Fused tricyclic compounds as Raf kinase inhibitors” (2016).

The target in test [1] is RAF proto-oncogene serine/threonine-protein kinase (Homo sapiens, UniProt P04049, Y340D/Y341D). Put plainly: (§1) Raf IC50 Assay: Compounds disclosed herein were tested against B-Raf (V600E) (PV3849, from Invitrogen) or C-Raf (Y340D/Y341D) (PV3805, from Invitrogen) in a time-resolved fluorescence energy transfer assay. The assay was carried out in reactions (10 uL) containing 0.0625 nM B-Raf or 0.5 nM C-Raf, 25 mM Tris pH7.4, 10 mM MgCl2, 0.5 mM EGTA, 0.5 mM […], 5 mM beta-glycerophosphate, 0.01% Triton X-100, 2.5 mM DTT, 0.1% BSA, 0.1 mM ATP, 13.7 nM GST-tagged MEK1 (Full-length protein with K97R mutation, recombinant protein purified from bacterial expression system) and 0-5 uM compounds disclosed herein (final concentration of 1% DMSO). The enzyme was incubated with the compounds at room temperature for 60 minutes and the reactions were initiated by the addition of ATP and GST-MEK1. After incubating at room temperature for 60 minutes, an equal volume of stop buffer containing 25 mM Tris pH7.4, 400 mM KF, 50 mM EDTA, 0.01% BSA, 0.01% Triton X-100, 1 test of Eu3+ Cryptate-conjugated rabbit polyclonal antibody anti-Phospho MEK1/2 (Ser217/221) and 1 test of d2-conjugated mouse monoclonal antibody anti-glutathione S-transferase was added to stop the reactions. Plates were sealed and incubated at room temperature for 2 hours, and then the TR-FRET signals were read on BMG PHERAstar FS instrument. The IC50 for each compound was calculated by non linear regression by Graphpad Prism software.
Sequence of RAF proto-oncogene serine/threonine-protein kinase (P04049 whole entry Y340D/Y341D): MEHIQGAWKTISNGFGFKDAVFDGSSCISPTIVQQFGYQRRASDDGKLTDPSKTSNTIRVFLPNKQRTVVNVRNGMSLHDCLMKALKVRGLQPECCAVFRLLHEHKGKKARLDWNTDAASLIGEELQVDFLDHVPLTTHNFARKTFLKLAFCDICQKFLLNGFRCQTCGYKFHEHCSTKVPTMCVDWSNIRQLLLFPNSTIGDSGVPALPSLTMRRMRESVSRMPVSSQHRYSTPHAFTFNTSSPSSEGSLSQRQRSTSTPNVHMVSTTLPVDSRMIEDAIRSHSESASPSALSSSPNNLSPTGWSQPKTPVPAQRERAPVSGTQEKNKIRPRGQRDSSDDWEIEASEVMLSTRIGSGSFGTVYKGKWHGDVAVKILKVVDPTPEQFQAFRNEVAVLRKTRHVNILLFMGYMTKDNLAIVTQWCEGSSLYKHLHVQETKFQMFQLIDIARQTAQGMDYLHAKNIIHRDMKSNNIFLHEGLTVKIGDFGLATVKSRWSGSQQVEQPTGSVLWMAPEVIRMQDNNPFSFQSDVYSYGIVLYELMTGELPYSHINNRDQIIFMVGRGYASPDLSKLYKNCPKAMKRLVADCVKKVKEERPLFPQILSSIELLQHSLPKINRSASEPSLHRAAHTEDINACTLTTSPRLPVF

Test [2] addresses Serine/threonine-protein kinase B-raf (Homo sapiens, UniProt P15056, V600E). The description is as §1.

Sequence of Serine/threonine-protein kinase B-raf (P15056 2-766 V600E limits assumed): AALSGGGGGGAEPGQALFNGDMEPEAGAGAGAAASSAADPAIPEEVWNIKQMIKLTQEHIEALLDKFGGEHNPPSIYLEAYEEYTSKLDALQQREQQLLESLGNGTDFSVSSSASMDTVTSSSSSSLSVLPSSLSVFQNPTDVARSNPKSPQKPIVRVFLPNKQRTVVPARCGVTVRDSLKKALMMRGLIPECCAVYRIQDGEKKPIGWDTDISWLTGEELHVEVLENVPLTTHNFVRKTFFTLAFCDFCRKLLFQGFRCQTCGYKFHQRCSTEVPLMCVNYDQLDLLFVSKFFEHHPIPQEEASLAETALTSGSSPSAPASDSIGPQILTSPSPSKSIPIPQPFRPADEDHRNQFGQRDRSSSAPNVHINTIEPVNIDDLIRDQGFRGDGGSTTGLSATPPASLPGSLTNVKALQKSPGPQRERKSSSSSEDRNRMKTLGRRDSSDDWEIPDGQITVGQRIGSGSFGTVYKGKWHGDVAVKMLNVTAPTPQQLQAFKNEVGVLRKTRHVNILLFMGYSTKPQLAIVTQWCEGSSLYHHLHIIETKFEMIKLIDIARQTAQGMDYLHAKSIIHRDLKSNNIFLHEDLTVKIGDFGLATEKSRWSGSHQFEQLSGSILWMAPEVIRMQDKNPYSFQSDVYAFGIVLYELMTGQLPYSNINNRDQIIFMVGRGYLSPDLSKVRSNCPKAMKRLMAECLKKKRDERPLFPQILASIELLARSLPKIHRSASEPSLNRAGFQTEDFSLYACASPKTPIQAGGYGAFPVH

What is called IC50 is the point on the concentration scale where inhibition reaches its midpoint. Consider `O=C1CCc2c(Oc3ccc4c(c3)C3C(O4)C3c3nc4ccc(C(F)(F)F)cc4[nH]3)ccnc2N1` (racemic), for which the concentration for half-maximal inhibition (IC50) in test [1] is 1.4 nM; in test [2] it was 7.2 nM.
On the same counts, the results for `O=C1CCc2c(Oc3ccc4c(c3)C3C(O4)C3c3nc4ccc(-c5ccccc5)cc4[nH]3)ccnc2N1` (racemic) are 81 nM and 232 nM.
In the case of `O=C1CCc2c(Oc3ccc4c(c3)C3C(C4)C3c3nc4ccc(C(F)(F)F)cc4[nH]3)ccnc2N1` (racemic), the 50% inhibitory concentration (IC50) in test [1] is 12 nM; in test [2] it was 72 nM.
As to `O=C1CCc2c(Oc3ccc4c(c3)C3C(O4)C3c3nc4cccc(Cl)c4[nH]3)ccnc2N1` (racemic), the IC50 is below 0.25 nM in test [1] and 16 nM in test [2].
Consider `O=C1CCc2c(ncc(Cl)c2Oc2ccc3c(c2)C2C(O3)C2c2nc3ccc(C(F)(F)F)cc3[nH]2)N1` (racemic), for which the values for the IC50 in test [1] and in test [2] were 432 nM and above 1000 nM, respectively.
For `O=C1CCc2c(Oc3ccc4c(c3)C3C(O4)C3c3nc4cc(Cl)c(C(F)(F)F)cc4[nH]3)ccnc2N1` (racemic), the concentration for half-maximal inhibition (IC50) in test [1] is 5 nM.
